Structures are written as SMILES.

The molecule `CCNc1nc(Nc2ccccc2)ncc1CCC(=O)OCC` yielded a melting point of 106 to 107 °C.
Turning to `COCCN1CCc2ccc(Nc3ncc(Cl)c(Nc4ccc(OC)c5c4C(=O)N(C)C5)n3)cc2CC1`, the melting point fell in the range of 206 to 207 °C.
Molecule `CCc1c(C=CC(=O)O)ccc2c1OCO2` showed a melting point of 204 °C.
For `c1cncc(CC2(Cc3cccnc3)c3ccccc3-c3ccccc32)c1`, the melting point is 137 to 138 °C.
`Brc1cccc(OCc2ccc3ccccc3c2)c1` came in with a melting point of 109 to 112 °C.
With `COc1ccc(OC)c(N2Cc3[nH]c(=O)[nH]c(=O)c3C2)c1`, the melting point lay within 308 to 310 °C.
`Cc1ccc2nc(Cl)c(Cl)nc2c1`: the melting point was 112 to 115 °C.
In the case of `COc1ccc(S(=O)(=O)N2CCc3cccc(-c4ccc(C=O)cc4)c32)cc1`, the melting point lay in the range of 152 to 153 °C.
`CCOC(=O)C(C)OCC#Cc1nc(Cl)ccc1N` (stereo unspecified) had a melting point of 70 °C.
`COC(=O)NNC(=O)C(O)(c1ccccc1)c1ccccc1`: the melting point fell in the range of 160 to 161 °C.
In turn, `CC(=O)Nc1nc(Cl)c2ncn(COC(COC(C)C)COC(C)C)c2n1` returned a melting point of 106 °C.
The molecule `C1=C(c2c[nH]c3ccccc23)CCN(CC2COc3ccc4ncncc4c3O2)C1` (stereo unspecified) yielded a melting point of 204 to 207 °C.
In turn, `Cc1ccc(-c2ccc(/C=C/C(=O)Nc3ccc(CN(C)C4CCOCC4)cc3)s2)cc1` came in with a melting point of 199 to 201 °C.
`CC(C)(C)c1cc(C(=O)c2c[nH]c(SC#N)c2SC#N)cc(C(C)(C)C)c1O` came in with a melting point of 143 to 144 °C.
With `CN1CCC(=C2c3ccccc3CCc3sc(Br)cc32)CC1` the figure was 141 to 142 °C; with `COC(=O)CCCS(=O)c1c(Cc2cccc3ccccc23)sc2c1c(=O)n(C)c(=O)n2CC(C)C` (stereo unspecified), 160 to 161 °C; with `O=C(O)c1cccc(N(C(c2ccccc2)c2ccccc2)n2cc(C3c4ccccc4C=Cc4ccccc43)c(=S)[nH]c2=O)c1`, 210 °C.
With `Fc1ccc(N2CCN(Cc3ccc4c(c3)NCCN4)CC2)cc1` the figure was 126 to 127 °C; with `O=[N+]([O-])c1cc(Sc2ccc(Cl)cc2)[nH]c1-c1ccc(Cl)cc1`, 195 to 197 °C.
`CC(=O)NCC1CN(c2ccc(N3CCN(c4nncs4)CC3)c(F)c2)C(=O)O1` (stereo unspecified) registered a melting point of 206 to 208 °C.
For the molecule `O=c1nc(-c2ccncc2O)nc2n(C3CCCC3)[nH]c(C(F)(F)F)c1-2`, the melting point is 205 to 206 °C.
For the molecule `O=S(=O)(NCCc1cccc(CCNS(=O)(=O)c2ccc(Cl)cc2)c1)c1ccc(Cl)cc1`, the melting point is 135 to 136 °C.
As to `O=C(CNC(=O)OCc1ccc([N+](=O)[O-])cc1)Nc1ccc(C(=O)OCI)cc1`, the melting point lay in the range of 162 to 164 °C.
In turn, `CCCCOC(=O)c1ccc2cc(O)ccc2c1` gave a melting point of 107 to 112 °C.
In turn, `CC(C)c1sc(C(O)(C(F)(F)F)C(F)(F)F)nc1-c1ccc(S(C)(=O)=O)cc1` came in with a melting point of 122 to 123 °C.
Turning to `CC(=O)c1cccc(-c2ccc(Oc3ncccc3C(=O)O)cc2)c1`, the melting point was 188 °C.
As to `COS(=O)(=O)c1cc(C(C)(C)C)c(O)c(C(C)(C)C)c1`, the melting point was in the range of 116 to 118 °C.
In turn, `CC1CN(C)c2c3c(nc4cccc(c24)O1)CCCC3` (stereo unspecified) yielded a melting point of 125 to 126 °C.
With `O=C(OCc1ccc([N+](=O)[O-])cc1)N1CCC(I)CC1` the figure was 102 to 104 °C; with `COC(=O)c1c(N)c2c(c(N)c1C#N)C(=O)c1ccccc1C2=O`, 215 to 218 °C.
`CN(C)c1ccc(CC(=O)N2CCC(c3[nH]nc4c3C(=O)c3c(NC(=O)NN5CCOCC5)cccc3-4)CC2)cc1`: the melting point fell in the range of 107 to 109 °C.
`COc1ccc(-c2nc3ccc(CBr)cc3o2)cc1`: the melting point lay in the range of 137 to 138 °C.
Under `O=S1(=O)N=CN(CCF)c2ccc(Cl)cc21` stands 211 to 218 °C.
In turn, `CCn1c2ccccc2c2c3c(c(-c4ccccc4Cl)cc21)C(O)NC3=O` (stereo unspecified) returned a melting point of 232 to 236 °C.
`CCCCCCCCCCCCCCCC(=O)N[C@@H](CSC[C@H](O)CO)C(=O)O`: the melting point was 110 °C.
Take `O=C(NCCCCN1CCC(c2ccc3c(c2)OCO3)CC1)c1ccc(NC(=O)c2ccc(Cl)cc2)cc1`: the melting point is 238 to 248 °C.
Molecule `CN1N=C(c2ccc(F)cc2)c2ccc(F)cc2CS1(=O)=O` registered a melting point of 205 to 206 °C.
On to `CS(=O)(=O)Nc1ccc(-c2cn3cccnc3n2)cc1Sc1ccc(F)cc1F`, for which the melting point lay in the range of 219 to 220 °C.
The molecule `Cc1ccccc1-c1cc(F)cc2c1NC(CN)CO2` (stereo unspecified) had a melting point of 78 °C.
Consider `Clc1ccc(-c2nc(Cl)cc(NCCN3CCOCC3)n2)cc1`, for which the melting point was in the range of 127 to 129 °C.
Regarding `CCC1(C)C(=CC=C2C(=O)c3ccccc3C2=C(C#N)C#N)N2CCc3cccc1c32` (stereo unspecified), the melting point came to 230 °C.
`COc1cccc2c(OCc3ccc(C(C)C)cc3)ccc(C=NNC(=O)c3ccc(O)c(Cl)c3)c12` came in with a melting point of over 250 °C.
With `O=Cc1nc2cc(F)ccc2s1` the figure was 105 to 107 °C; with `COc1ccc(-n2nc(Cl)cc2-c2ccc(OCCNC(N)=O)cc2)cn1`, 156 to 158 °C; with `CSc1c(O[C@H]2CC[C@@H](N3C(=O)c4ccccc4C3=O)CC2)ccc2[nH]ncc12`, 211 to 212 °C.
With `O=P(O)(O)C(O)(CCc1nn(-c2ccc(F)cc2)cc1-c1ccc(Cl)cc1)P(=O)(O)O` the figure was 223 °C; with `O=C(OCCN1CCN(c2cccc(C(F)(F)F)c2)CC1)c1cc(F)ccc1Nc1ccnc2cc(Cl)ccc12`, 113 °C.
Turning to `Clc1ccccc1C=C(CBr)c1ccccc1`, the melting point stood at 78 °C.
Under `Cc1ccc(OC2COc3ccc(OCc4ccc5ccccc5n4)cc3C2O)cn1` (stereo unspecified) stands 134 to 136 °C; under `CC(C)CC(NC(=O)C(Cc1c[nH]cn1)NC(=O)C(CC(=O)c1ccccc1)Cc1cccc2ccccc12)C(O)C(=O)OC(C)C` (stereo unspecified), 108 to 118 °C.
With `COCC(=O)Nc1cccc2c1C(=O)N(C1CCC(=O)NC1=O)C2=O` (stereo unspecified) the figure was 246 to 248 °C; with `CCCN1CCC(c2ccccc2)=C(C(=O)NCC)C1`, 80 to 83 °C.
Regarding `CC1(CF)C=C(C#N)c2cc([N+](=O)[O-])ccc2O1` (stereo unspecified), the melting point lay within 169 to 171 °C.
With `COC(=O)c1ccc(I)cc1S(N)(=O)=O` the figure was 176 to 177 °C.
As to `COCCOCCOC(=O)C#CC(=O)/C=C/c1ccc(OC)cc1`, the melting point lay in the range of 41 to 42 °C.
`CCCOc1ccc(S(=O)(=O)CC)cc1-c1nc2c(CC)nn(C[C@@H]3CCCN3C(=O)OC(C)(C)C)c2c(=O)[nH]1` showed a melting point of 170 to 172 °C.
For the molecule `NS(=O)(=O)Oc1ccccc1C(=O)O`, the melting point fell in the range of 139 to 140 °C.
With `COc1ccc(S(=O)(=O)N(CC(N)=O)c2ccc(C)cc2Cc2ccccc2Cl)cc1OC`, the melting point amounted to 141 °C.
With `CC(=O)c1c(C)nc(C)c(C(=O)OCCC#N)c1-c1cccc([N+](=O)[O-])c1`, the melting point came out at 85 °C.
Molecule `Cn1c(CN2C(=O)c3ccccc3C2=O)c(-c2ccc(O)cc2)c2cc(Cl)ccc2c1=O` displayed a melting point of 307 to 308 °C.
Under `COc1ccccc1-c1ccc2ccc(NC(=O)c3cccc(Br)c3)nc2n1` stands 110 °C; under `Nc1ccn([C@@]2(O)CC=C(P(=O)(O)O)O[C@@H]2CO)c(=O)n1`, 290 °C; under `CC1(C)C(=O)N(c2ccc([N+](=O)[O-])c(C(F)(F)F)c2)C(=O)N1CCCCCCCN1C(=O)N(c2ccc([N+](=O)[O-])c(C(F)(F)F)c2)C(=O)C1(C)C`, 137 to 138 °C.
With `O=C(NC1CCCCC1)c1ccccc1I` the figure was 148 to 149 °C.
Take `CN(C)Cc1ccc(CSCCN=CNS(=O)(=O)c2ccccc2)o1`: the melting point lay in the range of 83 to 85 °C.
Turning to `CC(=O)N1C(=O)C(C(=O)Cc2ccccc2)c2ccccc21` (stereo unspecified), the melting point is 149 to 151 °C.
On to `Cc1cc(Cl)cc(C(=O)C(=O)O)c1NC(=O)c1cc(Br)nn1-c1ncccc1Cl`, for which the melting point was 139 to 142 °C.
`CC(=O)Nc1nc2c(Oc3cc(-c4ccc(C(F)(F)F)cc4)nc(N4CCN(C(=O)OC(C)(C)C)CC4)n3)cccc2s1`: the melting point amounted to 211 °C.
On to `CC(=Cc1ccc(F)c(F)c1)C(=O)O`, for which the melting point was 122 to 125 °C.
With `Cc1cc(-c2nc3cccnn3c2-c2ccnc(NC(=O)c3ccc4ncccc4c3)c2)ccc1F` the figure was 210 to 211 °C; with `CCOC(=O)c1cc(CBr)cc(C(=O)OCC)c1`, 111 to 113 °C.
In the case of `CCOC(=O)Cc1c2c(nn1-c1ccccc1)c(=O)[nH]c1ccccc12`, the melting point is 301 to 303 °C.
For the molecule `CSc1nc(N)nc(-c2ccccc2)c1-c1ccc(=O)n(C)n1`, the melting point was in the range of 233 to 235 °C.
`COC(=O)[C@H](Cc1c(Br)n(Cc2ccccc2)c2cc(Br)c(OC)c(Br)c12)NC(C)=O` gave a melting point of 226 to 227 °C.
`CCCCCCCCC(CCC(=O)O)C(C)=O` (stereo unspecified) returned a melting point of 36 to 38 °C.
Regarding `O=C(N[C@H](Cc1ccc(C(F)(F)F)cc1)[C@@H](O)c1ccc(Oc2ccccc2)cc1)c1cccc2c1C=CCCC2` (racemic), the melting point is 191 to 192 °C.
As for `COc1ccc2c(c1)C(=O)c1c-2c(N2CCNCC2)nc2ccccc12`, the melting point was in the range of 150 to 151 °C.
With `O=C(O)c1cc(OCc2ccccc2)ccc1OCc1ccccc1`, the melting point fell in the range of 107 to 108 °C.
`CN1C(=O)C(c2cccc(-c3cncnc3)c2)(c2cscn2)N=C1N` (stereo unspecified) registered a melting point of 234 to 237 °C.
With `N#Cc1nn(-c2c(Cl)cc(C(F)(F)F)cc2Cl)c(N)c1SC(F)(F)F` the figure was 163 °C; with `CCCC(=O)Nc1cccc2c1C(=O)c1c-2n[nH]c1-c1ccc(OC)cc1`, 282 °C; with `CC(=O)Nc1ccc(SCCN2CC=C(c3ccc(F)cc3)CC2)cc1`, 150 to 152 °C.
Take `CCCCCCCCCCCCCCCCCCOc1cc(OCCCOc2cccc(N)c2)cc(C(=O)N(CC(=O)O)CC(=O)O)c1`: the melting point was in the range of 100 to 104 °C.
The molecule `O=S(=O)(CC1CCC1)c1nc[nH]n1` displayed a melting point of 125 to 134 °C.
The molecule `CCCCC(=O)NCc1ccc(I)cc1` came in with a melting point of 80 to 81 °C.
`Cc1nc(N(C)C=O)sc1C(=O)CBr`: the melting point is 80 to 82 °C.

As a reminder, the melting point is the temperature, or range, at which the solid turns liquid.

The values above are taken from a melting point compilation (Tetko et al.; mined from patent text by program, amines drawn as free bases though some values may be those of a salt).
